Laboratory results: patent US20150253330A1, “PRE-SELECTION OF SUBJECTS FOR THERAPEUTIC TREATMENT WITH AN HSP90 INHIBITOR BASED ON HYPOXIC STATUS” (Synta Pharmaceuticals Corp., priority 2012, published 2015)
Entries after “also recorded” stand apart in the source; their conditions may differ.

What was measured:
[1] = system: MKN45 (wt-p53, wt-KRAS, MET amplified); test: 72 hr viability by CTG, gastric cancer cells; format: cell-based; details: Homo sapiens, MKN-45, viability by CTG (upper)
Description: Many of the oncoproteins associated with gastric cancer and Hsp90 client proteins including HER2, MET, RAS and the FGFR family. Ganetespib was evaluated for its effect on the growth of AGS (wt-p53 and mut-KRAS) and MKN45 (wt-p53, wt-KRAS, MET amplified) gastric cancer cells.

advanced NSCLC = test: Phase 2 clinical trial in NSCLC by KRAS, EGFR and ALK mutation status; format: in vivo, human
Description: Patients with advanced NSCLC who failed prior treatments received 200 mg/m^2 of ganetespib as a 1-hr infusion once weekly for 3 of a 4-wk cycle in a Simon two-stage study design assessing primary endpoint of PFS rate at 16 wks. Initial cohorts were defined by mutation status: A) EGFR mutation, KRAS wild-type B) EGFR wild-type, KRAS mutation C) EGFR wild-type, KRAS wild-type (WT). If ≧2/14 patients in A, B or C were progression-free at 16 weeks, enrollment increased to 23 patients for that cohort. Tumor response was assessed every 8 weeks. Cohort D was added to include 35 additional EGFR wild-type and KRAS wild-type patients with adenocarcinoma histology. FISH analysis for ALK translocation, was performed for Cohorts C and D.

[2] = system: KRAS mutant NSCLC cell lines; test: Combinatorial viability analysis in KRAS mutant NSCLC cell lines; format: cell-based
Description: For combinatorial analysis, cells were seeded in 96-well plates at a predetermined, optimum growth density for 24 h prior to the addition of drug or vehicle to the culture medium. Drug combinations were applied at a non-constant ratio over a range of concentrations for 72 or 96 hours. […] Cell viability was assessed by either AlamarBlue® (Invitrogen, Carlsbad, Calif.) or CellTiter-Glo® assays and normalized to vehicle controls. For each combination study, the level of growth inhibition (fraction affected) is plotted relative to vehicle control. Data are presented as one relevant combination point and the corresponding single agent data for each cell line tested.

solid tumors = test: Phase 2 study in solid tumors, twice-weekly infusion (safety, PK, response); format: in vivo, human
Description: Patients with solid tumors who had exhausted standard treatment options received ganetespib as a 1 hr infusion twice-weekly for 3 weeks (weeks) of a 28 day cycle until disease progression. Serial PK and pharmacodynamic samples were obtained during cycle 1. Safety assessments included frequency and grade of adverse events (AEs), laboratory parameters and ECG changes.

advanced GIST = test: Phase 2 study in gastrointestinal stromal tumors (GIST); format: in vivo, human
Description: Patients with advanced (e.g., metastatic or unresectable) GIST following failure of prior therapy, e.g., imatinib or sunitinib, received ganetespib (200 mg/m^2) as a 1 hour IV infusion once per week for 3 weeks of a 28 day cycle. GIST status was assessed at 8 weeks per RECIST, until progression. […] Hsp90 client protein levels were analyzed in biopsies pre-therapy and 24-48 h post-treatment with ganetespib in a subset of patients.

[3] = system: BT-474 breast cancer cells grown as mammospheres; test: Viability of mammospheres in Matrigel, 72 hr, AlamarBlue; format: cell-based; details: Homo sapiens, BT-474 mammospheres in Matrigel
Description: The cells were treated for 72 hr and analyzed by microscopy. IC50 was determined by AlamarBlue®.
BT-474 HER2+ luminal cells were cultured as mammospheres in Matrigel® and exposed to ganetespib for 72 hr.

locally advanced or MBC = test: Phase 2 trial in metastatic breast cancer (MBC); format: in vivo, human
Description: Patients with locally advanced or MBC were treated with single agent of ganetespib at 200 mg/m^2 on a cycle of once weekly for 3 weeks, one week off, on a 28 day cycle. The primary endpoint of the trial was overall response rate using RECIST 1.1. Patients with HER2+ breast cancer were required to have received prior therapy with trastuzumab. No more than 3 lines of chemotherapy in the metastatic setting were permitted, but there was no limit on prior lines of hormone therapy. Patients were evaluated for response after 2 cycles. The trial used a Simon two-stage design requiring at least 3 responses among the first 22 patients, to allow expansion to a total of 40 patients. A total of 22 patients were treated with a median age of 51 years (38 to 70) and the following subtypes: 13 HER2+ (10 ER+/HER2+; 3 ER−/HER2+), 6 ER+/HER2−, and 3 ER−/PR−/HER2− (TNBC).

[4] = system: 15 KRAS mutant NSCLC cell lines; test: Viability of KRAS mutant NSCLC cell line panel, 72 h, CellTiter-Glo; format: cell-based; details: across 15 KRAS mutant NSCLC cell lines in vitro
Description: Breast cancer is a heterogeneous disease historically broken down into 4 subtypes. Various compounds were tested for their effects in cell viability assays using various breast cancer cell lines. Cellular viability was assessed using the CellTiter-Glo® Luminescent Cell Viability Assay (Promega, Madison, Wis., USA) according to the manufacturer's protocol. KRAS mutant NSCLC cell lines were seeded into 96-well plates based on optimal growth rates determined empirically for each line. Twenty-four hours after plating, cells were dosed with graded concentrations of ganetespib for 72 h. CellTiter-Glo® was added (50% v/v) to the cells, and the plates incubated for 10 min prior to luminescent detection in a SpectraMax® Plus 384 microplate reader (Molecular Devices, Sunnyvale, Calif., USA). Data were normalized to percent of control and IC50 values used to determine the sensitivity of each line. For the comparative analysis study with MEK and PI3K/mTOR inhibitors, A549, H2009, Calu-1, and H358 cells were treated with graded concentrations of ganetespib, AZD6244, or BEZ235 for 72 h and cell viability measured as above.

[5] = Cohort C: EGFR wild-type, KRAS wild-type

Compound: CC(C)c1cc(-c2nnc(O)n2-c2ccc3c(ccn3C)c2)c(O)cc1O [ganetespib]
- IC50 [1]: 0.5 nM
- Adverse events reported in ≧20% of patients (advanced NSCLC; 200 mg/m^2 once weekly for 3 of a 4-wk cycle, generally grade 1-2): diarrhea, fatigue, nausea, anorexia, constipation, and dyspnea
- Objective response rate (CR+PR) (advanced NSCLC; ALK+ patients, 4/8): 50%
- Disease control rate (advanced NSCLC; ALK+ patients, 7/8): 88%
- Patients with prolonged stable disease (≧16 weeks) (advanced NSCLC; [5]): seven
- Response in cohort C (advanced NSCLC; [5]): durable partial response (PR)
- ALK+ patients with tumor shrinkage in target lesions (advanced NSCLC; eight ALK+ patients of cohorts C and D (six of eight)): 75%
- Tolerability (advanced NSCLC; single agent 200 mg/m^2 once weekly, without severe liver, ocular, cardiovascular or renal toxicity): well-tolerated
- Increase in cell death versus monotherapy ([2]; ganetespib combined with alkylating agents): ≤ 61%
- Increase in cell death versus monotherapy ([2]; ganetespib combined with anti-mitotics): up to 44%
- Increase in cell death versus monotherapy ([2]; ganetespib combined with topoisomerase inhibitors): ≤ 26%
- Greater activity than monotherapy ([2]; low dose of ganetespib combined with MEK inhibitors): up to 77%
- Greater activity than monotherapy ([2]; low dose of ganetespib combined with PI3K/mTOR inhibitors): ≤ 42%
- NSCLC patients with durable SD, with tumor shrinkage (solid tumors; 6 months of treatment): 2 patients
- DLTs (elevated transaminases) (solid tumors; in the 10 and 144 mg/m^2 cohorts): Two
- Volume of distribution (solid tumors; patients): greater than total body water
- PK linearity (solid tumors; patients, doses from 2-144 mg/m^2): linear PK
- Accumulation in plasma (solid tumors; patients, twice-weekly dosing): no accumulation in plasma
- Tolerability (solid tumors; twice-weekly administration): absence of severe liver, ocular, cardiac and renal toxicity; also recorded: well-tolerated
- Response by RECIST in a patient with metastatic melanoma (solid tumors; twice-weekly dosing): confirmed durable PR
- AEs reported in ≧20% of patients (solid tumors; twice-weekly, majority mild to moderate): fatigue, diarrhea, nausea, anemia, abdominal pain, constipation, anorexia, vomiting, and headache
- Adverse events reported in >20% of patients (advanced GIST; 200 mg/m^2 once per week for 3 weeks of a 28 day cycle, generally NCI CTC grade 1-2): diarrhea, fatigue, nausea, vomiting, increased alkaline phosphatase, headache, insomnia, and abdominal pain
- Evaluable patients with SD (advanced GIST; 4 SD 16 weeks, 8 SD≧8 weeks): 12/23
- Client proteins in paired tumor biopsies (advanced GIST; biopsies from 4 patients, pre-therapy and 24-48 h post-treatment): did not show prolonged inhibition of activated KIT or its downstream pathways
- Tolerability (advanced GIST; once-weekly dosing, no evidence of severe liver, ocular, cardiac or renal toxicity): well-tolerated
- IC50 [3]: 20 nM
- CBR (CR + PR + SD > 6 months) (locally advanced or MBC; ER+/HER2− (N = 6)): 0
- CR (locally advanced or MBC; ER+/HER2− (N = 6)): 0
- ORR (locally advanced or MBC; ER+/HER2− (N = 6)): 0
- PR (locally advanced or MBC; ER+/HER2− (N = 6)): 0
- CBR (CR + PR + SD > 6 months) (locally advanced or MBC; HER2+ (N = 13)): 2 (9%)
- CR (locally advanced or MBC; HER2+ (N = 13)): 0
- ORR (locally advanced or MBC; HER2+ (N = 13)): 2 (9%)
- PR (locally advanced or MBC; HER2+ (N = 13)): 2
- CBR (CR + PR + SD > 6 months) (locally advanced or MBC; TNBC (N = 3)): 0
- CR (locally advanced or MBC; TNBC (N = 3)): 0
- ORR (locally advanced or MBC; TNBC (N = 3)): 0
- PR (locally advanced or MBC; TNBC (N = 3)): 0
- CBR (CR + PR + SD > 6 months) (locally advanced or MBC; Total (N = 22)): 2 (9%)
- CR (locally advanced or MBC; Total (N = 22)): 0
- PR (locally advanced or MBC; Total (N = 22)): 2 (9%)
- ORR (locally advanced or MBC; Total (N = 22), 200 mg/m^2 once weekly for 3 weeks, one week off): 2 (9%)
- Tolerability (locally advanced or MBC; single agent, expected GI toxicity mild in nature and manageable): well tolerated
- IC50 [4]: 24 nM
